Laboratory results as given in patent US6344457B1, “Amino acid derivatives inhibiting extracellular matrix metalloproteinase and TNF alpha release” (Chiesi Farmaceutici S.p.A., priority 1997, dated 2002).

Key:
[1] = system: metalloproteinase (MMP); details: J. Am. Chem. Soc. (1995), 117, 4671-4682; cited from earlier work
[2] = system: release of TNF from the peritoneal macrophages of mice stimulated by LPS; experiment: Inhibition of the production of TNF in vitro; assay type: cell-based; details: Peritoneal macrophage; mouse peritoneal macrophages, LPS 100 ng/ml; read-out: C150 (μM) TNF
[3] = target: 92 kDa gelatinase of human origin (Homo sapiens, UniProt P14780); experiment: Activity on gelatinase, radiomarked gelatin; assay type: biochemical; details: test performed with radiomarked gelatin; read-out: C150 (nM) gelatinase 92 kDa*
Sequence of 92 kDa gelatinase of human origin (P14780 94-707): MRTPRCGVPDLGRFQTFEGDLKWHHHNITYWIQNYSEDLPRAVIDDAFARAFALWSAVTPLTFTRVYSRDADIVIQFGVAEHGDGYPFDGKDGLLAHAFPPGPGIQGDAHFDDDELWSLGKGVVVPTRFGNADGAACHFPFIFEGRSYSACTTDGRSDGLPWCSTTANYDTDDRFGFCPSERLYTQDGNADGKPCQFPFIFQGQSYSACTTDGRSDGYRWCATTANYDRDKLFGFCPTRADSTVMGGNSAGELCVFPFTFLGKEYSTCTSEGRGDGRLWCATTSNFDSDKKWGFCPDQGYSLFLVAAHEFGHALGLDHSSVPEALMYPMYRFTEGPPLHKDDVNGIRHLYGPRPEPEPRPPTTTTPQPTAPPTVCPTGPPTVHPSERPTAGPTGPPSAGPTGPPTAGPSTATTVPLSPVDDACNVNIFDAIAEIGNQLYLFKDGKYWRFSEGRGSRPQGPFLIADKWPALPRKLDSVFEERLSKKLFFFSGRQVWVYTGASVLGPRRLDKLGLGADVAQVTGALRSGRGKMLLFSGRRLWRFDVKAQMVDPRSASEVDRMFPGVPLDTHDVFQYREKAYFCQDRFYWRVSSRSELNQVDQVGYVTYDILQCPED
Procedure, shortened: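 Human 92 kDa gelatinase incubated 16 hours at 37° C with radiolabelled gelatin; activity measured as release of soluble peptides from gelatin breakdown. Inhibitor tested between 10^−7 and 10^−12 M to derive the inhibiting concentration (C150).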

[4] = target: T1, collagenase of the human monocytic stock U937 (Homo sapiens, UniProt P03956); experiment: Activity on collagenase; assay type: biochemical; details: radiomarked collagen, 27° C., 16 hours; read-out: C150 (nM) collagenase
T1 construct: the collagenase of the human monocytic stock U937; endogenous in cells; host or cells: U937 human monocytic cell line
T1 sequence (P03956 100-469): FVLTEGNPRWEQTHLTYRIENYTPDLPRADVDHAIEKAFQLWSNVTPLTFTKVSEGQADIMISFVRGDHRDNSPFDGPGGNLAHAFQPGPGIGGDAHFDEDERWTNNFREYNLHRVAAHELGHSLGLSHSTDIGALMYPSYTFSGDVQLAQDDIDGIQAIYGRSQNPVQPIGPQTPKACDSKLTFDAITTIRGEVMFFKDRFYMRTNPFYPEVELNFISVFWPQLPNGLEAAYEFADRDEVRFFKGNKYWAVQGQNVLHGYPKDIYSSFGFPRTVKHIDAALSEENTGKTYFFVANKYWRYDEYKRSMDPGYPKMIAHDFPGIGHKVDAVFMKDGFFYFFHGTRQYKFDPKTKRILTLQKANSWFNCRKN

[5] = target: T2, 72 kDa gelatinase of human origin (Homo sapiens, UniProt P08253); experiment: Activity on gelatinase, synthetic substrate; assay type: biochemical; details: performed on synthetic substrate; read-out: C150 (nM) gelatinase 72 kDa**
T2 sequence (P08253 110-660): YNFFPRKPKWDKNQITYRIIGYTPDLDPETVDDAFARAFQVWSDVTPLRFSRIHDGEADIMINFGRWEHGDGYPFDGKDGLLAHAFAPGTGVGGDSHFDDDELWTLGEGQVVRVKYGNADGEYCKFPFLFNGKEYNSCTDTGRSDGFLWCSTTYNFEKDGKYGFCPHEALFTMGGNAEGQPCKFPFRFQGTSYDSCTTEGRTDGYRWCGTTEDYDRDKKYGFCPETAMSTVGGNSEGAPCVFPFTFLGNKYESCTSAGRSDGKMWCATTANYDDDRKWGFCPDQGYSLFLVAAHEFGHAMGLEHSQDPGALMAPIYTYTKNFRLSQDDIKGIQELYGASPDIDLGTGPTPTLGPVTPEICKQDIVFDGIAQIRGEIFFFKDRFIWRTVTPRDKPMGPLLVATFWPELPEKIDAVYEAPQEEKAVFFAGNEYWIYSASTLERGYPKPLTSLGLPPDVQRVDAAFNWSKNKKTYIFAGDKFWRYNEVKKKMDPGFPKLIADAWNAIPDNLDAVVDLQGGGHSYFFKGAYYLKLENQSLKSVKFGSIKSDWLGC
Procedure: The anti-gelatinase activity of the compounds according to the invention was determined on 72 kDa gelatinase of human origin, in accordance with the operating mode described by Knight, C. G., Willenbrock, F., Murphy, G. (FEBS Letters, 296 (3), 263-266, 1992).
The gelatinase was incubated at 37° C. for 10 minutes, and its activity was determined by the increase in fluorescence of the product of Mca-Pro-Leu breakdown of the Mca-Pro-Leu-Gly-Leu-Dpa-Ala-Arg-NH2 synthetic substrate.
The inhibiting concentration C150 for each compound was determined by measurement of the activity of the enzyme in the presence of the inhibitor at a concentration ranging between 10^−7 and 10^−12 M (the inhibitor is dissolved at a concentration of 10^−2 M in DMSO, then diluted successively by tenths in DMSO to 10^−4 M, then in the buffer: Tris, HCl 50 mM+0.05% Brij 35; CaCl2 10 mM; NaCl 0.15 M).

[6] = target: stromelysine of human origin (Homo sapiens, UniProt P08254); experiment: Activity on stromelysine; assay type: biochemical; details: radiomarked transferrin, 37° C., 16 hours; read-out: C150 (nM) stromelysine
Sequence of stromelysine of human origin (P08254 100-477): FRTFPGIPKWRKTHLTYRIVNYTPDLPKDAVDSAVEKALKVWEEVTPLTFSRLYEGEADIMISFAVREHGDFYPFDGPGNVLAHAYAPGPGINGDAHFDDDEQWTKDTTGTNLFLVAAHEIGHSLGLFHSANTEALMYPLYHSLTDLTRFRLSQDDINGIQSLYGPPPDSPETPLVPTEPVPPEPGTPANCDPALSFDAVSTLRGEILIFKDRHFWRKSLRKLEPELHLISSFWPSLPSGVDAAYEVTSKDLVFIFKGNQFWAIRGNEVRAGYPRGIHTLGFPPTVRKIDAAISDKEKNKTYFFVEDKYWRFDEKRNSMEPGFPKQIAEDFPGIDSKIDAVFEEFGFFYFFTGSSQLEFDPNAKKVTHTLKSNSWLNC
Procedure: The stromelysine was incubated at 37° C. for 16 hours with radiomarked transferrin, and its activity was determined by the release of the soluble peptides produced by the enzymatic breakdown of the transferrin. The inhibiting concentration C150 for each compound was determined by measurement of the activity of the enzyme in the presence of the inhibitor at a concentration ranging between 10^−7 and 10^−12 M (the inhibitor is dissolved in the same manner as for collagenase).

[7] = system: femoral head cartilage of the rat implanted subcutaneously in mice; experiment: Inhibition of the breakdown of cartilage in vivo; details: 10 mg/kg i.p. twice a day, 21 days
Procedure: The activities of the compounds of example 1 and example 10 comparatively to the compound BB16 were determined in a model of breakdown of cartilage in accordance with the operating mode described by Bottomley, K. M. K., Griffith, S. R. J., Rising, T. G., Steward, A. (Brit. J. Pharmacol. 21, 287-289, 1988). Femoral head cartilage of the rat, wrapped in sterile cotton, is implanted subcutaneously on the backs of mice. After 21 days, the mice are euthanized, the cartilages recovered and weighed. The animals are treated each day, twice a day, with one 10-mg/kg dose i.p.

[8] = system: female Balb/c mice (D-galactosamine + LPS shock); experiment: Inhibition of septic shock; assay type: in vivo; details: i.p. 30 minutes prior to induction of the shock; survival over 48 hours
Procedure: Septic shock is induced in female Balb/c mice in accordance with the procedure described by Mohler, K. M. et al. (Nature, 370, 218-220, 1994). Briefly, the shock is induced by i.p. injection of 20 mg of D-galactosamine and i.v. injection of 20 ng of LPS. The survival of the animals is evaluated for the following 48 hours.
The products to be tested are injected i.p. 30 minutes prior to induction of the shock. The compounds according to the invention protect from shock from 10 to 50 mg/kg. For instance, the compound of example 10 protects at 50 mg/kg.

IC50 [2] | IC50 [3] | IC50 [4] | IC50 [5] | IC50 [6] | Compound | loss of activity (factor) on substitution of the hydrogen with a methyl, compound V versus compound VI [1] | inhibition of weight loss of the cartilage [7] | dose that protects from septic shock [8]
– | – | – | – | – | CNC(=O)[C@H](Cc1c[nH]c2ccccc12)NC(=O)[C@@](C)(CC(=O)NO)CC(C)C [compound VI] | 300 | – | –
1 µM | 1 nM | 5 nM | 1 nM | 15 nM | CNC(=O)[C@H](Cc1ccc(OC)cc1)NC(=O)[C@](O)(CC(C)C)[C@H](C)C(=O)NO [Example 1] | – | 42% | –
0.4 µM | 2 nM | 4 nM | 1 nM | 48 nM | CNC(=O)[C@H](Cc1ccc(Cl)cc1)NC(=O)[C@](O)(CC(C)C)[C@H](C)C(=O)NO [Example 10, N-2(S) [-1(S) (hydroxycarbamoyl)-1 ethyl]-2(S) hydroxy-4-methyl pentanoyl L4-chlorophenylalanine N-methylamide] | – | 65% | 50 mg/kg
